Measured values taken from US20210317141A1, “OXOPYRIDO[1,2-A]PYRIMIDINE COMPOUNDS FOR THE TREATMENT AND PROPHYLAXIS OF BACTERIAL INFECTION” (Hoffmann-La Roche Inc., priority 2018, published 2021).
In brackets after ≈: the same amount, converted by molar mass.

Key:
[1] = Lyophilisation solubility assay (LYSA); assay type: physicochemical; conditions: aqueous buffer, thermodynamic from solid; 0.05 M phosphate buffer, pH 6.5; * = detection limit
Experimental: The solubility of compounds of present invention was assessed by LYSA assay. Samples were prepared in duplicate from 10 mM DMSO stock solutions (20 μL) diluted in 30 μL pure DMSO. After evaporation of DMSO with a centrifugal vacuum evaporator, the residue was dissolved in 0.05 M phosphate buffer (150 μL, pH 6.5), stirred for one hour and shook for two hours. After one night, the solution was filtered using a microtiter filter plate. Then the filtrate and its 1/10 dilution were analyzed by HPLC-UV. In addition, a four-point calibration curve was prepared from the 10 mM stock solutions and used for the solubility determination of the compounds.

E. coli (BW25113) = test: 50% growth inhibitory concentration (IC50) determination assay, E. coli; assay type: cell-based; conditions: Escherichia coli, growth inhibition, Iso-Sensitest broth, OD 600 nm over 16 h, 35±2° C., read-out: IC50 (μM) E. coli K12 BW25113
Experimental: (§1) The in vitro antimicrobial activity of the compounds against E. coli (BW25113, obtained from Coli Genetic Stock Center, #7636) and K. pneumoniae (ATCC10031) was determined according to the following procedure:
(§2) The assay used a 10-points Iso-Sensitest broth medium to measure quantitatively the in vitro activity of the compounds against E. coli BW25113 and K. pneumoniae ATCC 10031.
(§3) Stock compounds in DMSO were serially two-fold diluted (range from 50 to 0.097 μM final concentration) in 384 wells microtiter plates and inoculated with 49 μL the bacterial suspension in Iso-Sensitest broth medium to have a final cell concentration of ˜5×10^5 CFU/mL in a final volume/well of 50 μL/well. Microtiter plates were incubated at 35±2° C.
(§4) Bacterial cell growth was determined with the measurement of optical density at k=600 nm each 20 minutes over a time course of 16 h.
(§5) Growth inhibition was calculated during the logarithmic growth of the bacterial cells with determination of the concentration inhibiting 50% (IC50) of the growth.

E. coli (ATCC 25922) = test: Minimal Inhibitory Concentration (MIC) assay; assay type: cell-based; conditions: Escherichia coli, ATCC25922; CAMHB, 20 hours at 35° C.; read-out: MIC (μg/mL) E. coli ATCC 25922
Experimental: The in vitro potency of compounds to inhibit E. coli (ATCC 25922) growth was assessed by MIC (Minimal Inhibitory Concentration) assay. Samples were prepared from 10 mM DMSO stock solutions. After serial 2-fold dilution in DMSO in a master plate (Greiner, Cat No: 651201), 180 μL sterile distilled water was added to 20 μL each aliquot of the samples. Then […], diluted compounds were transferred into a new assay plate (Costar, 3599).
The growth medium […] Mueller Hinton Broth (CAMHB) was prepared by adding the 20 mg per liter CaCl2) and 20 mg per liter MgCl2 into the MHB medium (Jianglai Company, sterilized).
Vials of each of the test microorganisms were maintained frozen in the vapor phase of a liquid nitrogen freezer. Took out the bacteria E. coli ATCC 25922 (KWIKSTIK, 0335K) from liquid nitrogen freezer, thawed it in room temperature, and diluted the bacterial in the CAMHB medium to achieve a final inoculum of 5×10^5 CFU/mL. 90 μL CAMHB with bacteria was dispensed to the assay plate and pipetted 5 times.
Then the assay plates were incubated for 20 hours at 35° C. in ambient air. Following incubation, the MIC (μg/mL), the lowest concentration of drug that inhibits visible growth of the microorganism was read and recorded throw the microscope.

[2] = tested on: K. pneumoniae (ATCC10031); test: 50% growth inhibitory concentration (IC50) determination assay, K. pneumoniae; assay type: cell-based; conditions: Klebsiella pneumoniae, growth inhibition, Iso-Sensitest broth, OD 600 nm over 16 h, * = detection limit
Experimental: as §1, §2, §3, §4, §5

[3] = Cytotoxicity assay (HepG2, CellTiter-Blue); assay type: cell-based; conditions: human, HepG2 cells, 3 days treatment
Experimental: The cytotoxicity of compounds of present invention was assessed by HepG2 assay. HepG2 cells (ATCC HB-8065™) were seeded into 96-well plates (1.2×10^4 cells per well) and treated with compounds for 3 days, cell viability was measured at day 3 post compound treatment using the CellTiter-Blue® Cell Viability Assay (Promega, Cat. No. G8082). 20 μL of Cell titer blue buffer were added to each well of the cells, incubated for 3 hours at 37° C., and the fluorescence value was measured by a plate reader (Molecular Device SpectraMax M2). The CC50 value of each compound is plotted with GraphPad Prism using four parameter logistic equation.

SMILES | solubility thermodynamic [1] [mg/mL] | IC50 (E. coli (BW25113)) [µM] | MIC (E. coli (ATCC 25922)) [µg/mL] | IC50 [2] [µM] | CC50 at 3 days [3] [µM]
CNc1cc(F)c(F)c2c1[nH]c1ncc(-c3cc(OC)c4ncc(C(=O)O)c(=O)n4c3)c(N(C)C)c12 [Example 1.03, 7-[4-(Dimethylamino)-5,6-difluoro-8-(methylamino)-9H-pyrido[2,3-b]indol-3-yl]-9-methoxy-4-oxo-pyrido[1,2-a]pyrimidine-3-carboxylic acid] | 0.054 (≈ 109 µM) | 2.71 | 0.682 (≈ 1.38 µM) | 0.114 | > 100
CNc1c(F)c(F)cc2c1[nH]c1ncc(-c3ccc4ncc(C(=O)O)c(=O)n4c3)c(N3CCOCC3)c12 [Example 1.13, 7-(6,7-Difluoro-8-(methylamino)-4-morpholino-9H-pyrido[2,3-b]indol-3-yl)-4-oxo-4H-pyrido[1,2-a]pyrimidine-3-carboxylic acid] | 0.162 (≈ 320 µM) | 2.86 | 0.0909 (≈ 0.179 µM) | ≤ 0.098 | 80.1
CNc1cc(F)c(F)c2c1[nH]c1ncc(-c3ccc4ncc(C(=O)O)c(=O)n4c3)c(N3CCOCC3)c12 [Example 1.10, 7-(5,6-Difluoro-8-(methylamino)-4-morpholino-9H-pyrido[2,3-b]indol-3-yl)-4-oxo-4H-pyrido[1,2-a]pyrimidine-3-carboxylic acid] | 0.063 (≈ 124 µM) | 3.58 | 0.017 (≈ 0.0336 µM) | ≤ 0.098 | > 100
CNc1cc(F)cc2c1[nH]c1nc(Oc3cnc(C)nc3)nc(N3C[C@H]4C[C@@H]3C[C@H]4C)c12 [GP-6, reference compound] | < 0.001 | 0.17 | 0.127 (≈ 0.293 µM) | ≤ 0.098 | 5.6
